Source: patent publication US10947188B2, “Small molecule ferroptosis inducers” (THE TRUSTEES OF COLUMBIA UNIVERSITY IN THE CITY OF NEW YORK, priority 2016, dated 2021)

Test system: HT-1080
Assay: Modulatory profiling: Alamar Blue viability, lethal compound cotreated with death modulator (EC50, AUC); as to AUC HT.BHA: reference of the scale not given here; as to AUC HT.EGTA: reference of the scale not given here
Format: cell-based
Design: AUC, modulator HT.3MA / AUC, modulator HT.ALLN / AUC HT.ATA / AUC HT.ActD / AUC HT.BHA / AUC HT.BHT / AUC HT.BocD / AUC HT.CHX / AUC HT.Co2+ / AUC HT.DPQ / AUC HT.EGTA / AUC HT.Lmim / AUC HT.NAD+ / AUC HT.Nec-1 / AUC HT.SP600125 / AUC HT.TLCK / AUC HT.U0126: unit not given beside the values
Details: for AUC HT.ATA: HT-1080, modulator ATA; for AUC HT.ActD: HT-1080, modulator ActD; for AUC HT.BHA: HT-1080, modulator BHA; for AUC HT.BHT: HT-1080, modulator BHT; for AUC HT.BocD: HT-1080, modulator BocD; for AUC HT.CHX: HT-1080, modulator CHX; for AUC HT.Co2+: HT-1080, modulator Co2+; for AUC HT.CspA: HT-1080, modulator CspA; for AUC HT.DPQ: HT-1080, modulator DPQ; for AUC HT.EGTA: HT-1080, modulator EGTA; for AUC HT.Gd3+: HT-1080, modulator Gd3+; for AUC HT.LNAME: HT-1080, modulator LNAME; for AUC HT.Lmim: HT-1080, modulator Lmim; for AUC HT.NAD+: HT-1080, modulator NAD+; for AUC HT.NMMA: HT-1080, modulator NMMA; for AUC HT.Nec-1: HT-1080, modulator Nec-1; for AUC HT.Pepstatin: HT-1080, modulator Pepstatin; for AUC HT.SP600125: HT-1080, modulator SP600125; for AUC HT.TLCK: HT-1080, modulator TLCK; for AUC HT.U0126: HT-1080, modulator U0126; for HT.atoc (AUC) / HT.bCarotene (AUC) / HT.deferox (AUC) / HT.digoxin (AUC) / HT.trolox (AUC) / HT.zVAD (AUC) / EC50: HT-1080; for HT.atoc (AUC): modulator atoc; for HT.bCarotene (AUC): modulator bCarotene; for HT.deferox (AUC): modulator deferox; for HT.digoxin (AUC): modulator digoxin; for HT.trolox (AUC): modulator trolox; for HT.zVAD (AUC): modulator zVAD; for AUC, modulator HT.3MA / AUC, modulator HT.ALLN: HT-1080 cells, modulatory profile value (AUC); for AUC, modulator HT.3MA: lethal compound cotreated with modulator 3MA; for AUC, modulator HT.ALLN: lethal compound cotreated with modulator ALLN; for effect of ferroptosis inhibitors (iron chelators and lipophilic antioxidants) on lethality in modulatory profiling: HT-1080 and BJeLR; for EC50: Homo sapiens, HT-1080, 48 h, 48 h
[1] = cotreated with antioxidant Atoc
[2] = cotreated with antioxidant Trolox
[3] = cotreated with iron-chelator Deferoxamine
[4] = cotreated with iron-chelator Lmim

Row | SMILES | AUC HT.ATA | AUC HT.ActD | AUC HT.BHA | AUC HT.BHT | AUC HT.BocD | AUC HT.CHX | AUC HT.Co2+ | AUC HT.CspA | AUC HT.DPQ | AUC HT.EGTA | AUC HT.Gd3+ | AUC HT.LNAME | AUC HT.Lmim | AUC HT.NAD+ | AUC HT.NMMA | HT.atoc (AUC) | HT.bCarotene (AUC) | HT.deferox (AUC) | HT.digoxin (AUC) | HT.trolox (AUC) | also measured
1 | CC(/C=C/C(=O)NO)=C\[C@@H](C)C(=O)c1ccc(N(C)C)cc1 [TrichostatinA] | −0.0004817 | −0.1678 | −0.06956 | −0.1352 | 0.04109 | −0.09696 | −0.02771 | −0.1437 | −0.001553 | −0.01711 | −0.003398 | 0.003502 | −0.05021 | 0.03432 | 0.004335 | −0.005062 | −0.03472 | −0.1597 | −0.1261 | −0.03382 | AUC HT.Nec-1: −0.07289; AUC HT.Pepstatin: −0.003985; AUC HT.SP600125: −0.06865; AUC HT.TLCK: −0.02599; AUC HT.U0126: −0.06468; HT.zVAD (AUC): 0.04012; AUC, modulator HT.3MA: −0.1241; AUC, modulator HT.ALLN: −0.1481
2 | CC(C)C[C@H](NC(=O)[C@H](CC(C)C)NC(=O)[C@H](CC(C)C)NC(=O)OCc1ccccc1)B(O)O [MG262] | 0.0332 | −0.05854 | −0.0765 | −0.1219 | 0.007582 | −0.003977 | −0.04425 | −0.2145 | 0.008104 | −0.001152 | −0.003168 | 0.007002 | 0.001457 | 0.07679 | −0.004229 | 0.05222 | −0.009255 | −0.08465 | 0.05597 | −0.02068 | AUC HT.Nec-1: −0.06817; AUC HT.Pepstatin: −0.006069; AUC HT.SP600125: −0.036; AUC HT.TLCK: 0.03566; AUC HT.U0126: −0.06664; HT.zVAD (AUC): −0.05837; AUC, modulator HT.3MA: −0.06563; AUC, modulator HT.ALLN: −0.1356
3 | O=S(=O)(c1ccc2c(c1)C(=NO)c1cc(S(=O)(=O)N3CCCCC3)ccc1-2)N1CCCCC1 [CIL56, 2,7-bis(piperidin-1-ylsulfonyl)-9H-fluoren-9-one oxime] | −0.01939 | −0.124 | 0.1774 | 0.0146 | −0.0127 | −0.07234 | 0.01296 | 0.01564 | 0.06245 | 0.02378 | −0.01542 | 0.05375 | 0.1017 | 0.02315 | −0.01475 | 0.2436 | 0.05423 | 0.1269 | −0.1402 | 0.1421 | HT.zVAD (AUC): 0.03666; effect of ferroptosis inhibitors (iron chelators and lipophilic antioxidants) on lethality in modulatory profiling: suppression by canonical ferroptosis inhibitors; EC50 (DMSO): 0.443 µM; EC50 (cotreated with MEK inh U0126): 2.81 µM; EC50 [1]: 2.49 µM; EC50 (cotreated with antioxidant BHA): 2.65 µM; EC50 (cotreated with antioxidant BHT): 1.69 µM; EC50 [2]: 1.31 µM; EC50 [3]: 1.36 µM; EC50 [4]: 1.53 µM
4 | CCCS(=O)(=O)c1nnnn1-c1cccc(OC)c1 [CIL15] | −0.002809 | 0.01242 | −0.03993 | −0.1489 | 0.1021 | 0.06342 | 0.1397 | −0.007032 | −0.02394 | −0.0006158 | −0.03881 | 0.001309 | −0.04837 | 0.01762 | −0.01943 | 0.1224 | −0.003906 | 0.04237 | −0.01238 | −0.02956 | HT.zVAD (AUC): −0.04682; AUC, modulator HT.3MA: 0.0263; AUC, modulator HT.ALLN: 0.0001245
5 | O=C(CCCCCN1C(=O)c2cccc3cccc(c23)C1=O)NO [Scriptaid] | −0.03873 | −0.1632 | −0.05883 | −0.103 | 0.02828 | −0.1048 | −0.1939 | −0.1413 | −0.00813 | −0.01767 | −0.02176 | −0.002637 | −0.05583 | 0.01064 | 0.008869 | −0.009331 | −0.01872 | −0.1469 | −0.08793 | −0.02986 | AUC HT.Nec-1: −0.05617; AUC HT.Pepstatin: −0.01296; AUC HT.SP600125: −0.07; AUC HT.TLCK: −0.05575; AUC HT.U0126: −0.04228; HT.zVAD (AUC): 0.02988; AUC, modulator HT.3MA: −0.1244; AUC, modulator HT.ALLN: −0.1403
6 | CC[C@@]1(O)C(=O)OCc2c1cc1n(c2=O)Cc2cc3ccccc3nc2-1 [Camptothecin] | −0.00483 | −0.1287 | 0.04861 | −0.08411 | 0.03455 | 0.0562 | 0.1416 | −0.1552 | 0.008143 | 0.01652 | 0.02887 | 0.01135 | 0.0722 | 0.06078 | 0.01978 | 0.004008 | 0.002837 | 0.1288 | 0.1442 | 0.01719 | AUC HT.Nec-1: 0.01102; AUC HT.Pepstatin: 0.005918; AUC HT.SP600125: 0.02319; AUC HT.TLCK: 0.04383; AUC HT.U0126: 0.0002717; HT.zVAD (AUC): 0.03249; AUC, modulator HT.3MA: 0.0192; AUC, modulator HT.ALLN: 0.03354
7 | O=C(CCl)N(c1ccc(Cl)cc1)c1c[nH]c2ccccc12 [CIL75] | −0.01715 | 0.01892 | 0.3131 | 0.2828 | −0.01219 | 0.0402 | 0.1217 | −0.009674 | 0.01971 | −0.007018 | −0.02285 | −0.01737 | 0.2499 | −0.002594 | −0.02794 | 0.3816 | −0.01871 | 0.4009 | −0.037 | 0.3452 | HT.zVAD (AUC): 0.0001191; effect of ferroptosis inhibitors (iron chelators and lipophilic antioxidants) on lethality in modulatory profiling: suppression by canonical ferroptosis inhibitors; EC50 (DMSO): 0.144 µM; EC50 (cotreated with MEK inh U0126): 2.53 µM; EC50 [1]: 2.94 µM; EC50 (cotreated with antioxidant BHA): 2.75 µM; EC50 (cotreated with antioxidant BHT): 1.72 µM; EC50 [2]: 2.56 µM; EC50 [3]: 4.82 µM; EC50 [4]: 2.47 µM
8 | CS[C@H]1SC[C@H]2C(=O)N(C)[C@@H](C(C)C)C(=O)OC[C@@H](NC(=O)c3cnc4ccccc4n3)C(=O)N[C@@H](C)C(=O)N(C)[C@@H]1C(=O)N(C)[C@@H](C(C)C)C(=O)OC[C@@H](NC(=O)c1cnc3ccccc3n1)C(=O)N[C@@H](C)C(=O)N2C [Echinomycin] | 0.04087 | 0.06604 | 0.02424 | −0.04076 | 0.07385 | 0.1436 | 0.1492 | −0.08426 | 0.006918 | 0.006916 | 0.01526 | 0.01178 | 0.06784 | 0.178 | −0.0009733 | 0.1464 | −0.004968 | 0.1665 | 0.09969 | −0.02423 | AUC HT.Nec-1: 0.02093; AUC HT.Pepstatin: 0.006861; AUC HT.SP600125: 0.08228; AUC HT.TLCK: 0.006436; AUC HT.U0126: 0.01676; HT.zVAD (AUC): 0.07367; AUC, modulator HT.3MA: 0.3083; AUC, modulator HT.ALLN: 0.084
9 | Cc1ccc(O)c(/N=C/C=C/c2cccc(Br)c2)c1 [CIL27] | 0.04845 | 0.03171 | −0.0156 | −0.05537 | 0.003288 | 0.04576 | 0.04606 | −0.03639 | 0.02307 | 0.02604 | −0.0168 | 0.001204 | −0.001055 | −0.0034 | −0.01331 | 0.04362 | −0.01166 | 0.1441 | 0.001262 | −0.05943 | HT.zVAD (AUC): −0.01508; AUC, modulator HT.3MA: 0.0766; AUC, modulator HT.ALLN: 0.1636
10 | O=C1c2c(O)ccc(O)c2C(=O)c2c(NCCNCCO)ccc(NCCNCCO)c21 [Mitoxantrone] | 0.02422 | −0.02073 | 0.02091 | −0.0249 | 0.06802 | 0.04002 | 0.3817 | −0.1127 | 0.006504 | 0.01802 | 0.03227 | 0.01298 | 0.05678 | 0.1502 | 0.0236 | 0.04839 | −0.003915 | 0.1001 | 0.1321 | −0.01388 | AUC HT.Nec-1: 0.01073; AUC HT.Pepstatin: 0.02067; AUC HT.SP600125: −0.01575; AUC HT.TLCK: 0.06003; AUC HT.U0126: −0.03205; HT.zVAD (AUC): 0.03446; AUC, modulator HT.3MA: 0.02955; AUC, modulator HT.ALLN: 0.07355
